This is an account of results in US20220354754A1, “FOAM COMPOSITIONS” (The Procter & Gamble Company, priority 2021, published 2022).

A value given as a limit tells only on which side of the number the result lay.

This data set is described as follows: Water solubility of blowing agents at 20° C. The note with it: in water.
Take `CCCC` [Butane]: the “Water solubility at 20° C. (weight percent)” value is reported as less than 0.01% weight percent.

As to `O=C=O` [Carbon dioxide], the “Water solubility at 20° C. (weight percent)” value is 0.8% weight percent. In the case of `[He]` [Helium], the “Water solubility at 20° C. (weight percent)” value was less than 0.01 weight percent. As to `COC` [Dimethyl ether], the “Water solubility at 20° C. (weight percent)” value was determined as 7% weight percent. The value for `[N-]=[N+]=O` [Nitrous oxide] was 0.12 weight percent; that for `CC(C)C` [Isobutane] was less than 0.01% weight percent.
